Ends that are not written are not given here.
Legend:
[1] = tested on: peritoneal cells (CCR2+ macrophages) of 4T1 tumor-bearing mice; experiment: Flow cytometry of FAM-peptide binding to peritoneal cells from 4T1 tumor mice; assay type: cell-based, mouse; details: anti-CD206 10 μg/mL
Protocol: A, Change in fluorescence anisotropy of FAM-UNO (dotted line) and FAM-UNO in DTT (solid line) while incubating with mouse recombinant CD206. B, Change in fluorescence anisotropy of FAM-CSPGAK with mouse recombinant CD206 (solid line) or with CD163 (dotted line) and of FAM-CPMTDNE (control) with CD206 (dashed line). C, FAM-UNO binds selectively to CCR2^+ macrophages collected from the peritoneal cavity of 4T1 tumor-bearing mice, as 94.3% of FAM^+ cells are CCR2^+ cells. The analysis was done gating for the FAM^+ population (left panel). In these 4T1 tumor bearing mice, 58% of peritoneal cells are macrophages, i.e. CCR2^+ cells (right panel). D, FAM-UNO binding to peritoneal cells is inhibited by preincubating with 10 µg/mL of anti-CD206, whereas the preincubation with anti CD206 antibody had no effect on FAM-LyP-1 binding. In panels A and D are shown representative graphs from three independent experiments. In panels c and d are shown results from three independent experiments (n=3 mice) and bars of panel D represents mean+SEM.
Peritoneal cells were extracted from Balb/c mice 2 weeks after inoculation of 10^6 cells orthotopically). Mice were anesthetized and intraperitoneally injected with 5 mL of PBS+1% BSA, the abdomen was massaged to detach macrophages and the peritoneal fluid was collected. This procedure typically yielded 5-9×10^6 cells. Cells were concentrated to 1 mL in the same peritoneal fluid. For FAM-peptide incubation, the peptides were incubated for 30 minutes at 4° C. For antibody incubation the cells were incubated with antibody for 1 h at 4° C. A647 Rat anti-CCR2 (Biolegend, CA, USA. Catalog number 150603) was incubated for 1 h at 4° C. at a dilution of 1/200. FAM-peptides were incubated at a concentration of 0.5 μg/mL, and Rat anti-CD206 (Bio-Rad, CA, USA. Product code MCA2235GA) was incubated at a concentration of 10 μg/mL. Binding of FAM-peptides was monitored with 488 nm channel and CCR2 labeling was assessed in the 647 nm channel using A647 Anti-CCR2 (Biolegend, CA, USA). After incubation of FAM-Peptides or antibodies, the cells were washed 3 times at 4° C. with PBS-Tby centrifugation at 250 g for 6 minutes, followed by flow cytometry analysis (Accuri, BD Biosciences, CA, USA).

peritoneal macrophages = experiment: In vivo phage display on peritoneal cells of 4T1 tumor-bearing versus normal mice; design: species or system mouse; details: phage-displayed peptide, peritoneal cells of 4T1 tumor mice
Protocol: A, Naive phage library was injected intraperitoneally in 4T1 tumor-bearing mice and age-matched normal mice, and allowed to circulate for two h. Peritoneal cells were collected, the accompanying phages were rescued and the peptide-encoding segment of phage DNA was sequenced. […] Peritoneal cells were extracted from the mice, seeded on coverslips, allowed to attach for 2 h, fixed, permeabilized, and stained for CD206. CD206+ cells were counted from 6 different confocal images, 2 from each mouse. C, Highly repeated sequences obtained from the first round of the biopanning experiment shown schematically in panel A. D, Frequency of phage clones encoding UNO or a randomly picked peptide (CIGVSSDC) divided by the total number of repeated sequences) in the 4T1 tumor-bearing and normal mice.
Ten days later, the 4T1 mouse and a Balb/c female mouse of the matched age, were injected with 500 μL of a 7×10^10 pfu/mL of purified CX7C long-circulating library that bears a mutation on the p17 protein of tail fiber^45. After 2 h the mice were anesthetized and peritoneal cells were collected, washed by centrifugation, and lysed by hand-held homogenizer in 2 mL of LB+NP40 1%. The phage was amplified in E. coli strain BLT5403 for high throughput sequencing of peptide encoding segment of the phage genomic DNA using Ion Torrent semiconductor sequencing system.
In vivo phage display was carried out on orthotopic breast cancer bearing mice as outlined in FIG. 1A. Compared to peritoneal cells of healthy mice, […] macrophages were ˜5-fold overrepresented in Balb/c mice bearing metastatic syngeneic 4T1 breast tumors (FIG. 1B). We hypothesized that a peptide that binds to peritoneal macrophages in tumor-bearing mice may also target M2-like TAMs. Mice with 4T1 tumors were injected intraperitoneally (i.p.) with a phage library expressing 9-amino acid cyclic CX7C peptides. After 2 h, peritoneal cells were collected, bound phages were rescued by amplification, and the resulting phage pool was subjected to high-throughput sequencing of the peptide-encoding segment of the phage genome. […]

[2] = molecular target: T1, recombinant mouse macrophage mannose receptor rmMMR/CD206 (Mus musculus, UniProt Q61830); experiment: Fluorescence anisotropy assay with mouse recombinant CD206; assay type: binding; details: 50 nM FAM peptide, 1 μM protein, 25 °C
T1 construct: purchased R&D Systems 2535-MM-050
T1 sequence (Q61830 20-1456): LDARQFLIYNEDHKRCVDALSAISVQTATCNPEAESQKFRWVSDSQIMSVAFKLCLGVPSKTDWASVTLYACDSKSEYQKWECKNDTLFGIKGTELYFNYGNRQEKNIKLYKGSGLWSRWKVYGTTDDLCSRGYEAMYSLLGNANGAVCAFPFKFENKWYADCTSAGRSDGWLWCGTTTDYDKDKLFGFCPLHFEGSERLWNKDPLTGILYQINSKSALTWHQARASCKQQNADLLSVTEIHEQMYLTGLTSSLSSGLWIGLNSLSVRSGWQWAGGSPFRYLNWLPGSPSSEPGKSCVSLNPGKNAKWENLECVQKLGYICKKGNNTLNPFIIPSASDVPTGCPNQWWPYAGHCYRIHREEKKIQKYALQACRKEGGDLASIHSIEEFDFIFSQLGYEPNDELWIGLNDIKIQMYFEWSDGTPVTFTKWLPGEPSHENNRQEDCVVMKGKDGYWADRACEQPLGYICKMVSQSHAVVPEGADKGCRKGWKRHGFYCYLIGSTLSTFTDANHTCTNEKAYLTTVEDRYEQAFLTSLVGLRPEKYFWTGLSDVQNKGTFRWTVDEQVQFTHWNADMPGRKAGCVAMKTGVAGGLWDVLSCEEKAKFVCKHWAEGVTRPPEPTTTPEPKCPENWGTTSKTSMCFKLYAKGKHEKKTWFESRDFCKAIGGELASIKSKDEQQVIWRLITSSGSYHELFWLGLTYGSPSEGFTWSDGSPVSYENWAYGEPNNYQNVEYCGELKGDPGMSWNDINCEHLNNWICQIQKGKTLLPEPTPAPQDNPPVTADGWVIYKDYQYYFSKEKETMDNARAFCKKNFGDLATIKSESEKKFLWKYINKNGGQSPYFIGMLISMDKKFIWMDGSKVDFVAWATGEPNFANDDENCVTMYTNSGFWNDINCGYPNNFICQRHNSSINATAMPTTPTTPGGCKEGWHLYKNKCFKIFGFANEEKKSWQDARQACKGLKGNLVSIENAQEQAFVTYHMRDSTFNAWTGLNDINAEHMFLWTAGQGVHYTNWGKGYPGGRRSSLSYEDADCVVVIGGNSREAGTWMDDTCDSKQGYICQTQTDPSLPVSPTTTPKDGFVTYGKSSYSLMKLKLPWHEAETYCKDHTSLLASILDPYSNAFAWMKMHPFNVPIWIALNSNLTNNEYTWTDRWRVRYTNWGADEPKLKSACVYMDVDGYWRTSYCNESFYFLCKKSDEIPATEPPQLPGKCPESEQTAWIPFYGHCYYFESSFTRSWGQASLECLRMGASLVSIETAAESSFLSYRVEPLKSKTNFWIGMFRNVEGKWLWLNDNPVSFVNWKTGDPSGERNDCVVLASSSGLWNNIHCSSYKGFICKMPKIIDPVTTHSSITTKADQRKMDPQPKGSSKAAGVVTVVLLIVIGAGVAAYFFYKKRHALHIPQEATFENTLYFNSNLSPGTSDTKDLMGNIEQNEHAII
Protocol: The stocks of fluorescent ligands (FAM-UNO, FAM-CSPGAK and FAM-CPMTDNE) in mQ water were stored at −20° C. […], 150 mM NaCl, 1 mM CaCl2, 0.1% Pluronic F-127, pH 7.4) on the day of experiment. The concentration of fluorescent ligands was determined by absorbance of FAM (E495=75000 M^−1 cm^−1).
The recombinant mouse macrophage mannose receptor rmMMR/CD206 (R&D Systems, catalog number: 2535-MM-050) and recombinant mouse CD163 (R&D Systems, catalog number: 7435-CD-050) were reconstituted at 1 mg/ml in IB, aliquoted and stored at −20° C. To generate linearized version of cyclic FAM-UNO peptide, the peptide at 1 mM concentration was preincubated for 24 h at room temperature in a dark place with 3 mM DTT and diluted with IB 2×10^5 times before the FA assay. The control experiment with FAM-CPMTDNE peptide (FIG. 22) was performed to rule out the possibility of disulphide bond formation, which could affect the binding properties of linear peptides. Initially, the peptide was preincubated in DMSO for 4 days at room temperature to enhance the disulphide bond formation, and then diluted in IB buffer with 3 mM DTT, and the disappearance of preformed dimer was observed as a change in FA signal.
In all experiments, FA signal measurements were done under pseudo first-order conditions with 50 nM singly labelled FAM peptides and 1 μM proteins. […] Assays were carried out in kinetic mode in a total volume of 30 μl at 25° C. on the PHERAstar (BMG Labtech, Germany) microplate reader using an optical module with excitation and emission filters of 485 nm (slit 10 nm) and 520 nm (slit 10 nm), respectively. Dual emission detection mode allows simultaneous recording of intensities that are parallel (l) and perpendicular (1) to the plane of excitation light. […] The background fluorescence (receptor and buffer components in the absence of fluorescent ligand) was subtracted independently from all intensity channels. FA signals at time t after initiation of binding reaction was calculated as parameters r(t) from the equation: […]

FAM-LyP-1: FAM-labeled LyP-1 (CGNKRTRGC; SEQ ID NO: 4), peptide that targets cell surface p32 (not fully specified (N-terminus); cysteine pairing not given here) [reference compound]
reduction of binding to peritoneal cells by pre-incubation with anti-CD206 antibody [1]: no effect

CGEKRTRGC [phage clone previously identified together with LyP-1]
representation among sequenced phage clones (peritoneal macrophages): second most abundant phage clone overrepresented in the cancer mice

FAM-CPMTDNE: FAM-labeled control peptide CPMTDNE (SEQ ID NO: 7) (not fully specified; FAM label) [reference compound]
change in fluorescence anisotropy (interaction) with mouse recombinant CD206 [2]: did not cause significant changes in anisotropy values

— patent publication US11571484B2, “Compositions that target tumor-associated macrophages and methods of use therefor” (Sanford Burnham Prebys Medical Discovery Institute, priority 2017, dated 2023)
